Measurements taken from article PMC6274539, “Photoactivatable Caged Prodrugs of VEGFR-2 Kinase Inhibitors” (Molecules, 2016).

Assays:
Experiment in all cases: kinase profiling, radioactive filter binding assay
Assay type in all cases: biochemical
RSK2 = RSK2 (Homo sapiens, UniProt P51812); conditions: 0.1 µM compound, assay duplicates; read-out: residual activity of RSK2, mean percentage activity
Protocol: (§1) The used method was a radioactive filter binding assay using ^33P ATP, for details see references. The substances were dissolved in DMSO at tested concentration of 0.1 µM. The mean percentage residual kinase activity and standard deviations of assay duplicates were determined. Analyses were performed by the International Center for Kinase Profiling at the University of Dundee, UK.

PRK2 = PRK2 (Homo sapiens, UniProt Q16513); conditions: 0.1 µM compound, assay duplicates; read-out: residual activity of PRK2, mean percentage activity
Protocol: as §1

IGF1-R = IGF1-R (Homo sapiens, UniProt P08069); conditions: 0.1 µM compound, assay duplicates; read-out: residual activity of IGF1-R, mean percentage activity
Protocol: as §1

ERK1 = ERK1 (Homo sapiens, UniProt P27361); conditions: 0.1 µM compound, assay duplicates; read-out: residual activity of ERK1, mean percentage activity
Protocol: as §1

PIM3 = PIM3 (Homo sapiens, UniProt Q86V86); conditions: 0.1 µM compound, assay duplicates; read-out: residual activity of PIM3, mean percentage activity
Protocol: as §1

DYRK2 = DYRK2 (Homo sapiens, UniProt Q92630); conditions: 0.1 µM compound, assay duplicates; read-out: residual activity of DYRK2, mean percentage activity
Protocol: as §1

CDK2-Cyclin A = CDK2-Cyclin A (Homo sapiens, UniProt P24941); conditions: 0.1 µM compound, assay duplicates; read-out: residual activity of CDK2-Cyclin A, mean percentage activity
Protocol: as §1

SYK = SYK (Homo sapiens, UniProt P43405); conditions: 0.1 µM compound, assay duplicates; read-out: residual activity of SYK, mean percentage activity
Protocol: as §1

PKCa = PKCa (Homo sapiens, UniProt P17252); conditions: 0.1 µM compound, assay duplicates; read-out: residual activity of PKCa, mean percentage activity
Protocol: as §1

YES1 = YES1 (Homo sapiens, UniProt P07947); conditions: 0.1 µM compound, assay duplicates; read-out: residual activity of YES1, mean percentage activity
Protocol: as §1

CK1 = CK1 (Homo sapiens, UniProt P48730); conditions: 0.1 µM compound, assay duplicates; read-out: residual activity of CK1, mean percentage activity
Protocol: as §1

PKBa = PKBa (Homo sapiens, UniProt P31749); conditions: 0.1 µM compound, assay duplicates; read-out: residual activity of PKBa, mean percentage activity
Protocol: as §1

EPH-B3 = EPH-B3 (Homo sapiens, UniProt P54753); conditions: 0.1 µM compound, assay duplicates; read-out: residual activity of EPH-B3, mean percentage activity
Protocol: as §1

SGK1 = SGK1 (Homo sapiens, UniProt O00141); conditions: 0.1 µM compound, assay duplicates; read-out: residual activity of SGK1, mean percentage activity
Protocol: as §1

EPH A2 = EPH A2 (Homo sapiens, UniProt P29317); conditions: 0.1 µM compound, assay duplicates; read-out: residual activity of EPH A2, mean percentage activity
Protocol: as §1

JNK1 = JNK1 (Homo sapiens, UniProt P45983); conditions: 0.1 µM compound, assay duplicates; read-out: residual activity of JNK1, mean percentage activity
Protocol: as §1

SRPK1 = SRPK1 (Homo sapiens, UniProt Q96SB4); conditions: 0.1 µM compound, assay duplicates; read-out: residual activity of SRPK1, mean percentage activity
Protocol: as §1

PIM1 = PIM1 (Homo sapiens, UniProt P11309); conditions: 0.1 µM compound, assay duplicates; read-out: residual activity of PIM1, mean percentage activity
Protocol: as §1

MARK3 = MARK3 (Homo sapiens, UniProt P27448); conditions: 0.1 µM compound, assay duplicates; read-out: residual activity of MARK3, mean percentage activity
Protocol: as §1

PKBb = PKBb (Homo sapiens, UniProt P31751); conditions: 0.1 µM compound, assay duplicates; read-out: residual activity of PKBb, mean percentage activity
Protocol: as §1

p38g MAPK = p38g MAPK (Homo sapiens, UniProt P53778); conditions: 0.1 µM compound, assay duplicates; read-out: residual activity of p38g MAPK, mean percentage activity
Protocol: as §1

DYRK3 = DYRK3 (Homo sapiens, UniProt O43781); conditions: 0.1 µM compound, assay duplicates; read-out: residual activity of DYRK3, mean percentage activity
Protocol: as §1

VEG-FR = conditions: 0.1 µM compound, assay duplicates
Protocol: as §1

RSK1 = RSK1 (Homo sapiens, UniProt Q15418); conditions: 0.1 µM compound, assay duplicates; read-out: residual activity of RSK1, mean percentage activity
Protocol: as §1

PAK6 = PAK6 (Homo sapiens, UniProt Q9NQU5); conditions: 0.1 µM compound, assay duplicates; read-out: residual activity of PAK6, mean percentage activity
Protocol: as §1

MNK1 = MNK1 (Homo sapiens, UniProt Q9BUB5); conditions: 0.1 µM compound, assay duplicates; read-out: residual activity of MNK1, mean percentage activity
Protocol: as §1

MAPKAP-K2 = MAPKAP-K2 (Homo sapiens, UniProt P49137); conditions: 0.1 µM compound, assay duplicates; read-out: residual activity of MAPKAP-K2, mean percentage activity
Protocol: as §1

EFK2 = EFK2 (Homo sapiens, UniProt O00418); conditions: 0.1 µM compound, assay duplicates; read-out: residual activity of EFK2, mean percentage activity
Protocol: as §1

TBK1 = TBK1 (Homo sapiens, UniProt Q9UHD2); conditions: 0.1 µM compound, assay duplicates; read-out: residual activity of TBK1, mean percentage activity
Protocol: as §1

Sequence of EPH-B3 (P54753 34-998): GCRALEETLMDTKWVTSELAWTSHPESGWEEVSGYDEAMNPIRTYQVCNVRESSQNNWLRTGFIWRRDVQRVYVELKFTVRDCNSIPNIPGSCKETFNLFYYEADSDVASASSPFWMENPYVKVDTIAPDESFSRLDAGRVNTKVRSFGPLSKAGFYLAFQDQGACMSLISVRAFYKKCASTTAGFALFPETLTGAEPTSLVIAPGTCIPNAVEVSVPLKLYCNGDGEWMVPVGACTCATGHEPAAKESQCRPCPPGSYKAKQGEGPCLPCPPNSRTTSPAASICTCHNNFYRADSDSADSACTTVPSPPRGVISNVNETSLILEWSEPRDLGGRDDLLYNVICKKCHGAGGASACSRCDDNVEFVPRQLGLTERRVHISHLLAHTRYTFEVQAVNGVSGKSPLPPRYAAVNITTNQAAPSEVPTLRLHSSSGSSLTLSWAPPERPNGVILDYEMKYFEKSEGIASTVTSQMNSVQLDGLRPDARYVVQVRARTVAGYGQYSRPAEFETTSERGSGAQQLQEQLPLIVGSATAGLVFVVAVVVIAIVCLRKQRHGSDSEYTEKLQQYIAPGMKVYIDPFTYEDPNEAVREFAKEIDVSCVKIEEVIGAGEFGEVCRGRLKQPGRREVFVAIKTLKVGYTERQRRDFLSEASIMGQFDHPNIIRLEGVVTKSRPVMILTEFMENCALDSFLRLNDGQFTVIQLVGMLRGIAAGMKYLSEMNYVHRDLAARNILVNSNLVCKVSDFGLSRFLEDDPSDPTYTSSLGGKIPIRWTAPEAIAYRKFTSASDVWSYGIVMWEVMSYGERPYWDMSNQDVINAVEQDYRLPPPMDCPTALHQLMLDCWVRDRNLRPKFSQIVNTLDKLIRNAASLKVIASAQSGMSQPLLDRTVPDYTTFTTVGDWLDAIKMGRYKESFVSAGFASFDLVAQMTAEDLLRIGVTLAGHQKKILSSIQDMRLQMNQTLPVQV
Sequence of DYRK2 (Q92630 whole entry): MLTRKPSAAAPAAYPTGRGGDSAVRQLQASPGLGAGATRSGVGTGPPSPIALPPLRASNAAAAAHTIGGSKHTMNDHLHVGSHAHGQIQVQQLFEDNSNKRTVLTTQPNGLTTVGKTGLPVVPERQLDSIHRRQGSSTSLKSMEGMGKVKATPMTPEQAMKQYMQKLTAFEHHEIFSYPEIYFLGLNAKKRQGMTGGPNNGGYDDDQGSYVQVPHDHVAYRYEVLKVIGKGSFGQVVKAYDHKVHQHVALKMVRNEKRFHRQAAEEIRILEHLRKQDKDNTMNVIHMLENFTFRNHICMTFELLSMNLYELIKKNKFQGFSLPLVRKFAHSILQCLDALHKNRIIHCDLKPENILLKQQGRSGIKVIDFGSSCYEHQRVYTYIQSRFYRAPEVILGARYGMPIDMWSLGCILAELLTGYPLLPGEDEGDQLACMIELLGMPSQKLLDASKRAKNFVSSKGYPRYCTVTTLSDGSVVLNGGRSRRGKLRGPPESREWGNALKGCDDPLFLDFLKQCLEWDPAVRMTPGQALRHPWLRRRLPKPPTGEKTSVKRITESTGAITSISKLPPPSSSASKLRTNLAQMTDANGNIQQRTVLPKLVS
Sequence of ERK1 (P27361 whole entry): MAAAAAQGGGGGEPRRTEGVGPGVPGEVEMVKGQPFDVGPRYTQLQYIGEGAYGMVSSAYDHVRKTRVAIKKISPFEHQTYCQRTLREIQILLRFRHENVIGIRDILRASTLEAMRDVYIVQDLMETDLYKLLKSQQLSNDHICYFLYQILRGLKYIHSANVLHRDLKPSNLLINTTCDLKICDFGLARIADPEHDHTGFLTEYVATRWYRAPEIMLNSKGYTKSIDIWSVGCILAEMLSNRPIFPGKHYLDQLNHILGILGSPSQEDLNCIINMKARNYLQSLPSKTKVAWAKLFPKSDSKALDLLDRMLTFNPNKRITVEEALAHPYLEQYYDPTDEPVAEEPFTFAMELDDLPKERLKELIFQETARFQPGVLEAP
Sequence of JNK1 (P45983 whole entry): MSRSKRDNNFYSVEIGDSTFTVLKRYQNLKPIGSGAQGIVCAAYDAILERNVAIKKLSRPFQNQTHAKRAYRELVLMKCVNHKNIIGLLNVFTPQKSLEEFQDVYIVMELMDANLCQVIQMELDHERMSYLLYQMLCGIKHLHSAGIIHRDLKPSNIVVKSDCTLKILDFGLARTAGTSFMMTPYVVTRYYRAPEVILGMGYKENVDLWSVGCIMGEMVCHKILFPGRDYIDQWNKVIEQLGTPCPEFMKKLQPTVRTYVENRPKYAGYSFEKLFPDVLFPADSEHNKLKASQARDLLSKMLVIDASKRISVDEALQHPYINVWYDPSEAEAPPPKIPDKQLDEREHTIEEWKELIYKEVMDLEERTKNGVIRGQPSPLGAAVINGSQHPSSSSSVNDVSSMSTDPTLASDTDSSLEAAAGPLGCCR
Sequence of MARK3 (P27448 whole entry): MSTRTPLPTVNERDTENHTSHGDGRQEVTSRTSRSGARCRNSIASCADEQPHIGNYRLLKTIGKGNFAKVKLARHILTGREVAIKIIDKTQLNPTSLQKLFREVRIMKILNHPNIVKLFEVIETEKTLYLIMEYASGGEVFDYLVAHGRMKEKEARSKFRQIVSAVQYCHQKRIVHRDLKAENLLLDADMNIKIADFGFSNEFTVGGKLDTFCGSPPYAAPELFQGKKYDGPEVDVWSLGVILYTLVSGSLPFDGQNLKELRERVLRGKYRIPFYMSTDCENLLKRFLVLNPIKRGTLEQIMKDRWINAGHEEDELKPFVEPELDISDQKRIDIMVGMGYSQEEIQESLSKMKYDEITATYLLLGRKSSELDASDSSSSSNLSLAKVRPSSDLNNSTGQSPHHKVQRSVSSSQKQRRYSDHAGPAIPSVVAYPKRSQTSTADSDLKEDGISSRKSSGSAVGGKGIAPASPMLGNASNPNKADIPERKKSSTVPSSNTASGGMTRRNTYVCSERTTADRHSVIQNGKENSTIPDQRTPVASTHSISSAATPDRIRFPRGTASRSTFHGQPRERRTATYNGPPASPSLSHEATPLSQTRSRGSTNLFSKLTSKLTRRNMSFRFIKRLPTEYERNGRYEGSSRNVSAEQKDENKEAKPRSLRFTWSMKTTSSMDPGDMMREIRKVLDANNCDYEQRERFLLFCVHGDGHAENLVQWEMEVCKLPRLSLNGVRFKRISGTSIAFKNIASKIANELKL
Sequence of EPH A2 (P29317 24-976): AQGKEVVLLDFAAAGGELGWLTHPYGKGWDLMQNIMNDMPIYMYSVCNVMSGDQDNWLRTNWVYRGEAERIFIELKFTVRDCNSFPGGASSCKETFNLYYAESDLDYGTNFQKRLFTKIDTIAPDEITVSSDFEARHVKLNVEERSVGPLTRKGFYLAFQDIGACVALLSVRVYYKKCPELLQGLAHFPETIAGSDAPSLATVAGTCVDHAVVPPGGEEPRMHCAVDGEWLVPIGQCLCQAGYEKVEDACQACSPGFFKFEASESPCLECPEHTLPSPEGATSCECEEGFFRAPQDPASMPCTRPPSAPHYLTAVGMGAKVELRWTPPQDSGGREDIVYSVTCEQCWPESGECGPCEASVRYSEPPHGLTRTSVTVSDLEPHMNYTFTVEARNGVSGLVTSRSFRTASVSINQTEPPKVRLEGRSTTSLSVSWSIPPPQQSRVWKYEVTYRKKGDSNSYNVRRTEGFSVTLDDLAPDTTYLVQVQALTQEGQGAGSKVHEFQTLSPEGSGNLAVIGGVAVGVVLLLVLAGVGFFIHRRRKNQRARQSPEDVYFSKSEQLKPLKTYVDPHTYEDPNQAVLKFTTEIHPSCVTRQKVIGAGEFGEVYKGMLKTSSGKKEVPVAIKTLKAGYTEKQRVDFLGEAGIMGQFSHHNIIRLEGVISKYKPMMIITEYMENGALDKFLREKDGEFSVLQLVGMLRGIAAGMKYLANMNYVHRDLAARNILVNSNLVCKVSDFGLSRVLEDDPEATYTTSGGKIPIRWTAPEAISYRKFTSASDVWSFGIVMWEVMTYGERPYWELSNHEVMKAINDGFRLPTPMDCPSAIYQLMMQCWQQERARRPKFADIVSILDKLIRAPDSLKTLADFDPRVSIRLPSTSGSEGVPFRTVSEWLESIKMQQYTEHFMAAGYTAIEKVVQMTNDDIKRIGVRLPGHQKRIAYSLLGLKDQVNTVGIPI
Sequence of p38g MAPK (P53778 whole entry): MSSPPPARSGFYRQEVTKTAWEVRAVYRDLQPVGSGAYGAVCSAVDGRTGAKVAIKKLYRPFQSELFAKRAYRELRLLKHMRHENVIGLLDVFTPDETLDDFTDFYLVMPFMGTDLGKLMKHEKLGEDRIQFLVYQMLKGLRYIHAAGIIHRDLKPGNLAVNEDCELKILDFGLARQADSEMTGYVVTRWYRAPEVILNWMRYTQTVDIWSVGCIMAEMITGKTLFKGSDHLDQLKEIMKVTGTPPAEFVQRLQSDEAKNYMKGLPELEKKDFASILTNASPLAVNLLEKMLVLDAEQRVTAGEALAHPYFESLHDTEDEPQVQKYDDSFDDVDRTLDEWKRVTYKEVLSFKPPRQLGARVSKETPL
Sequence of CK1 (P48730 whole entry): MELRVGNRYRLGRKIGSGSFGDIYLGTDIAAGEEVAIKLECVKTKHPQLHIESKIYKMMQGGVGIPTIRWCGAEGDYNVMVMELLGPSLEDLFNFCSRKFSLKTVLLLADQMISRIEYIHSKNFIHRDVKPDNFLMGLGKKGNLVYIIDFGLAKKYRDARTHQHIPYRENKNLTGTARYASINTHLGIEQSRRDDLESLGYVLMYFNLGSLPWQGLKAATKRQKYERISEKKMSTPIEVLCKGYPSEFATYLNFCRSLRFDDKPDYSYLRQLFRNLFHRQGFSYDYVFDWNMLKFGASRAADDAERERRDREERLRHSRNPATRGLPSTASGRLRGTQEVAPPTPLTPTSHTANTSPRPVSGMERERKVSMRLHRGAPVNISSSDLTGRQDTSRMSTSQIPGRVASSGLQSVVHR

In the case of `COc1cc(C2=C(c3c[nH]c4ccccc34)C(=O)NC2=O)cc(OC)c1OC` [Compound 1, 3-(1H-Indol-3-yl)-4-(3,4,5-trimethoxyphenyl)-1H-pyrrole-2,5-dione], the remaining activity at 0.1 µM (RSK2) is reported as 91%, the remaining activity at 0.1 µM (PRK2) is reported as 84% and the remaining activity at 0.1 µM (IGF1-R) is reported as 90%. It also gave a remaining activity at 0.1 µM (ERK1) of 100%, a remaining activity at 0.1 µM (PIM3) of 5% and a remaining activity at 0.1 µM (DYRK2) of 57%. The remaining activity at 0.1 µM (CDK2-Cyclin A) was 59%, the remaining activity at 0.1 µM (SYK) was 85% and the remaining activity at 0.1 µM (PKCa) was 113%. It also gave a remaining activity at 0.1 µM (YES1) of 84%, a remaining activity at 0.1 µM (CK1) of 86% and a remaining activity at 0.1 µM (PKBa) of 66%. For the same molecule, the remaining activity at 0.1 µM (EPH-B3) was 104%, the remaining activity at 0.1 µM (SGK1) was 75% and the remaining activity at 0.1 µM (EPH A2) was 104%. The remaining activity at 0.1 µM (JNK1) was 96%, the remaining activity at 0.1 µM (SRPK1) was 85% and the remaining activity at 0.1 µM (PIM1) was 14%. It also gave a remaining activity at 0.1 µM (MARK3) of 90%, a remaining activity at 0.1 µM (PKBb) of 98% and a remaining activity at 0.1 µM (p38g MAPK) of 91%. For the same molecule, the remaining activity at 0.1 µM (DYRK3) was 85%, the “residual activity of VEG-FR, mean percentage activity” value (VEG-FR) was 10% and the remaining activity at 0.1 µM (RSK1) was 96%. The remaining activity at 0.1 µM (PAK6) was 97%, the remaining activity at 0.1 µM (MNK1) was 80% and the remaining activity at 0.1 µM (MAPKAP-K2) was 94%. For the same molecule, the remaining activity at 0.1 µM (EFK2) was 104% and the remaining activity at 0.1 µM (TBK1) was 87%.
Molecule `COc1cc2c3c(c4c5ccccc5[nH]c4c2c(OC)c1OC)C(=O)NC3=O` [Compound 3, 5,6,7-Trimethoxybenzo[a]pyrrolo[3,4-c]carbazole-1,3(2H,8H)-dione] has a remaining activity at 0.1 µM (RSK2) of 62%, a remaining activity at 0.1 µM (PRK2) of 52% and a remaining activity at 0.1 µM (IGF1-R) of 65%. It also gave a remaining activity at 0.1 µM (ERK1) of 91%, a remaining activity at 0.1 µM (PIM3) of 4% and a remaining activity at 0.1 µM (DYRK2) of 17%. The remaining activity at 0.1 µM (CDK2-Cyclin A) was 28%, the remaining activity at 0.1 µM (SYK) was 86% and the remaining activity at 0.1 µM (PKCa) was 90%. For the same molecule, the remaining activity at 0.1 µM (YES1) was 88%, the remaining activity at 0.1 µM (CK1) was 78% and the remaining activity at 0.1 µM (PKBa) was 81%. The remaining activity at 0.1 µM (EPH-B3) was 133%, the remaining activity at 0.1 µM (SGK1) was 52% and the remaining activity at 0.1 µM (EPH A2) was 109%. For the same molecule, the remaining activity at 0.1 µM (JNK1) was 96%, the remaining activity at 0.1 µM (SRPK1) was 83% and the remaining activity at 0.1 µM (PIM1) was 5%. For the same molecule, the remaining activity at 0.1 µM (MARK3) was 73%, the remaining activity at 0.1 µM (PKBb) was 91% and the remaining activity at 0.1 µM (p38g MAPK) was 86%. For the same molecule, the remaining activity at 0.1 µM (DYRK3) was 46%, the “residual activity of VEG-FR, mean percentage activity” value (VEG-FR) was 37% and the remaining activity at 0.1 µM (RSK1) was 51%. It also gave a remaining activity at 0.1 µM (PAK6) of 99%, a remaining activity at 0.1 µM (MNK1) of 79% and a remaining activity at 0.1 µM (MAPKAP-K2) of 95%. It also gave a remaining activity at 0.1 µM (EFK2) of 109% and a remaining activity at 0.1 µM (TBK1) of 85%.
